Source: patent US20140038967A1, “NOVEL USE FOR IMIDAZOTRIAZINONES” (ALGIAX PHARMACEUTICALS GMBH, priority 2011, published 2014)

How the values were obtained:
[1] = system: severe spinal cord contusion injury; assay: Explorative rearing test after severe spinal cord contusion injury, intrathecal treatment; assay type: in vivo, Lewis rats; conditions: intrathecal 100 μM over 14 days
Experimental: (§1) Thirteen week-old female Lewis rats (Charles River, Sulzfeld Germany) were housed under a 12:12 h dark/light regime and allowed free access to water and food. After one week of habituation the animals underwent general anesthesia with a mixture of isoflurane and air (induction: 5% isoflurane, maintenance: 2.2% isofluorane). A T8 laminectomy was performed without rupturing the dura and a severe contusive SCI (25 gcm NYU/MASCIS II impactor) {Gruner, 1992 #3} was induced. Thereafter, the surgery continued with the procedure to position the silicon tube intrathecal catheter (7740, Alzet). Firstly, the catheter was filled with either the active or the vehicle solution. Secondly, another laminectomy was performed, again without rupturing the dura, at T11. At this position a small incision was made into the dura and the catheter was inserted at thoracic level 11 and pushed forward under lamina of T10-T9 to the lesion site at T8. The catheter was then cut at the appropriate length and connected to a filled osmotic minipump (Alzet, model 2002) which was placed subcutaneously. The overlying tissue was sutured, and a subcutaneous (s.c.) injection of 5 ml of Ringers Lactate was given. The different solutions (active or vehicle) were infused at a flow rate of 0.5 μl/h over a time period of 14 days. […]
When placed in a Plexiglas cylinder (18 cm diameter×35.0 cm height), animals spontaneously rear and contact the walls with their forepaws. Numbers, duration and types of rears were analyzed during the 3-min recorded observation period in the cylinder (Himes et al., 2006; Shumsky et al., 2003). […] The testing session was videotaped, and rearing behaviour was scored blindly at a later date. […]
Occasionally an animal progressed through several types of rears before touching down, in which case the time the animal spend in each rearing height was measured by counting the single video frames. Data were expressed as number of attempts (rears), attempt duration and the time each animal spend in the different rearing heights.

[2] = system: severe spinal cord contusion injury; assay: BBB open field locomotor rating scale after severe spinal cord contusion injury, intrathecal treatment; assay type: in vivo, Lewis rats
Experimental: Intrathecal treatment with a imidazotriazinone after severe spinal cord contusion injury in the rat.
as §1, with “T8.” for “T8. The catheter was then cut at the appropriate length and connected to a filled osmotic minipump (Alzet, model 2002) which was placed subcutaneously. The overlying tissue was sutured, and a subcutaneous (s.c.) injection of 5 ml of Ringers Lactate was given. The different solutions (active or vehicle) were infused at a flow rate of 0.5 μl/h over a time period of 14 days.”
(§2) The BBB Open Field Locomotor Rating Scale: • The BBB locomotor rating scale was used to assess general locomotor performance (Basso et al., 1995). The score was assessed before injury and at 1, 3, 5, 7, 14, 21, 35, 42, 49, 56 and 63 days post operation (dpo) by 2 blinded observers.

[3] = system: severe spinal cord contusion injury; assay: BBB open field locomotor rating scale after severe spinal cord contusion injury, oral treatment; assay type: in vivo, Lewis rats
Experimental: as §2
Oral Treatment with a Imidazotriazinone after Severe Spinal Cord Contusion Injury in the Rat.
Thirteen week-old female Lewis rats (Charles River, Sulzfeld Germany) were housed under a 12:12 h dark/light regime and allowed free access to water and food. After one week of habituation the animals underwent general anesthesia with a mixture of isoflurane and air (induction: 5% isoflurane, maintenance: 2.2% isofluorane). A Th10 laminectomy was performed without rupturing the dura and a severe contusive SCI (25 gcm NYU/MASCIS II impactor) (Gruner, 1992) was induced. After suturing muscle and skin, a subcutaneous (s.c.) injection of 5 ml of Ringers Lactate was given. Bladders were emptied manually 2 times a day until spontaneous voiding returned (usually within 1 week). The lesion severity was verified by the impact velocity and contusion depth of the impactor rod. Animals with an impact velocity error >5% were excluded from further analysis. After injury, individual rats were randomly assigned into a treatment group. The following groups were used: […]

embryonic DRG explants = assay: Axonal growth and Schwann cell expansion in embryonic DRG explants; assay type: cell-based, Wistar rat
Experimental: In vitro experiments with an imidazotriazinone to improve axonal growth and Schwann cell expansion in embryonic DRG explants of rats.
Outgrowth studies with 7-(4-tert-butylcyclohexyl)-5-ethyl-2-phenylimidazo[5,1-f][1,2,4]triazin-4(3H)-one or the vehicle were performed on embryonic neural tissue. DRGs of thoracic, lumbar, and sacral levels were prepared from Wistar rat embryos E18-20 and processed in ice cold 0.6% glucose in PBS. Harvested DRGs were freed from attaching nerve fibres, dissected, and transferred onto poly-D-lysine- and laminin-coated glass coverlips. To avoid cluster formation, a maximum of two DRG explants was transferred onto a single glass coverslip. Following an initial attachment phase, the pre-incubation medium was replaced by fully supplemented growth medium spiked with the test item (7-(4-tert-butylcyclohexyl)-5-ethyl-2-phenylimidazo[5,1-f][1,2,4]triazin-4(3H)-one groups 2 and 3) or vehicle (DMF, group 1) and incubated at 37° C./10% CO2 for additional 22 hours in vitro. Following 22 hours in vitro, the DRG explants were fluorescently labelled and axonal growth and Schwann cell expansion were quantitatively assessed.
The following experimental groups were included into the study: • Fully supplemented growth medium with 0.1% vehicle. • Fully supplemented growth medium with 0.1% vehicle and 7-(4-tert-butylcyclohexyl)-5-ethyl-2-phenylimidazo[5,1-f][1,2,4]triazin-4(3H)-one at a final concentration of 0.01 μM. • Fully supplemented growth medium with 0.1% vehicle and 7-(4-tert-butylcyclohexyl)-5-ethyl-2-phenylimidazo[5,1-f][1,2,4]triazin-4(3H)-one at a final concentration of 0.1 μM. • Fully supplemented growth medium with 0.1% vehicle and 7-(4-tert-butylcyclohexyl)-5-ethyl-2-phenylimidazo[5,1-f][1,2,4]triazin-4(3H)-one at a final concentration of 1 μM.

[4] = compared to vehicle control animals (FIG. 3)
[5] = tested 0.01, 0.1 and 1 μM, 22 hours in vitro

CCc1nc(C2CCC(C(C)(C)C)CC2)n2nc(-c3ccccc3)[nH]c(=O)c12 (stereo not drawn) [7-(4-tert-butylcyclohexyl)-5-ethyl-2-phenylimidazo[5,1-f][1,2,4]triazin-4(3H)-one]
duration of rearing attempts [1, 4]: longer in time | height reached by forepaws in rearing attempts [1, 4]: reached much higher | types of rears performed ([1]; vehicle animals only crouch or rear): able to perform standing and even reaching | BBB locomotor rating scale, treatment effect over the entire time-period of the assessment ([2]; intrathecal 100 μM, 0.5 μl/h over 14 days, ANOVA-RM p=0.013 vs vehicle (FIG. 2)): significant effect | functional recovery after severe spinal cord contusion (overall, example 2) ([2]; intrathecal treatment, rat): significantly improves functional recovery | BBB score at steady state ([3]; 10 mg in vehicle, vehicle animals 7.8 (FIG. 4)): 9.0 | BBB score at the end of the experiment compared to vehicle controls ([3]; 10 mg, DPO 56, Students T-Test p=0.0012 (FIG. 5)): performed significantly better | Schwann cell numbers compared to vehicle-treated cultures (embryonic DRG explants; 0.01-1 μM, 22 hours in vitro): increased nearly fourfold | Schwann cell expansion (numbers of Schwann cells outside the DRG explant core) (embryonic DRG explants; 0.01-1 μM, 22 hours in vitro (FIG. 1B)): significant increase | growth area of outgrowing axons (embryonic DRG explants; 0.01-1 μM, 22 hours in vitro, compared to vehicle-treated cultures (FIG. 1A)): significant increase | concentration at which Schwann cell numbers were highest (embryonic DRG explants; [5]): 0.1 µM | concentration at which elevation of axonal growth areas was highest (embryonic DRG explants; [5]): 0.1 µM
